Earlier results on one compound are cited in patent EP4115885A1 (Charité - Universitätsmedizin Berlin, priority 2021, dated 2023).

The conditions of data set [1]: human, in vivo.

The structures appear in SMILES notation.

Take `C[C@@H]1CN(Cc2ccc(F)cc2)CCN1C(=O)COc1ccc(Cl)cc1NC(N)=O` [BAY 86-5277, N-[5-chloro-2-[2-[(2R)-4-[(4-fluorophenyl)methyl]-2-methyl-1-piperazinyl]-2-oxoethoxy]phenyl]-urea]: in data set [1], the tolerability entry is reported as “generally well tolerated”. Also, in the data set with model of sepsis, the “effect of blockade of CCR1” value is “beneficial”.
